We go through two compounds from patent US20240199628A1, “TETRAPYRROLE-BASED COMPOUNDS AND THEIR FOMULATIONS FOR ANTI-MICROBIAL THERAPY” (biolitec Unternehmensbeteiligungs II AG, priority 2021, published 2024).

The subject of test [1] is replication competent HIV-1 infectious molecular env clones (IMC). Briefly: A3R5 assay, all tested HIV-1 IMCs. In kind it is cell-based. Conditions: two independent runs, concentrations of 2.5 μM and 1.25 μM. As to the method:
(§1) Antiviral testing was performed using temoporfin. The organisms studied were replication competent HIV-1 infectious molecular env clones (IMC) in the A3R5 assay. Following IMC were used: (I) 398-71-F6_20-IMC (origin Tansania, Clade A), (II) X2278_C2_B6-IMC (origin Spain, Clade D), (III) 25710_2.43-IMC (origin India, Clade C) and (IV) CNE55-IMC (origin China, Clade […]). Virus specific original env sequences were cloned into the HIV-1 NL4-3 backbone (gene bank ID: M19921) sequence containing a Renilla reniformis luciferase reporter gene to measure the infectivity rate.
(§2) A3R5 cells are grown in RPMI1640 supplemented with 10% fetal calf serum, 25 mM HEPES, 50 μg/ml gentamycine and 1 mg/ml geneticin. […] Within the assay the A3R5 cells were added (plus 5 μg/ml DEAE-Dextran) to the temoporfin samples in the presence of the respective amount of IMC at 50,000 RLU equivalents. After 96 hrs incubation the read out of the A3R5 assays occurred. The decrease of the luminescence compared to the virus control was measured using Victor X3 luminometer (Perkin Elmer) and allowed the detection of a possible inhibitory effect of temoporfin against HIV-1 IMCs.

The subject of test [2] is CNE55-IMC (origin China, Clade CRF01_AR). The experiment in a line: A3R5 assay, virus inhibition, HIV-1 IMC CNE55. Format: cell-based. The settings on record: Human immunodeficiency virus 1, 96 h, read-out: inhibition compared to the virus control. As to the method:
as §1, §2

For test [3], the system named is X2278_C2_B6-IMC (origin Spain, Clade D). Briefly: A3R5 assay, virus inhibition, HIV-1 IMC X2278_C2_B6. Format: cell-based. Conditions: 96 h, read-out: anti-HIV-1 effect (inhibition). As for the experimental part: as §1, §2
Test [4] concerns 25710_2.43-IMC (origin India, Clade C). The experiment in a line: A3R5 assay, virus inhibition, HIV-1 IMC 25710_2.43. In kind it is cell-based. Conditions: Human immunodeficiency virus 1, 96 h, read-out: inhibition compared to the virus control. As to the method: as §1, §2
Test [5] concerns 398-71-F6_20-IMC (origin Tansania, Clade A). Briefly: A3R5 assay, virus inhibition, HIV-1 IMC 398-71-F6_20. Conditions: Human immunodeficiency virus 1, 96 h, read-out: anti-HIV-1 effect (inhibition). Format: cell-based. As to the method:
as §1, §2

A further test deals with Staphylococcus aureus. The experiment in a line: Antibacterial testing in submerged cultures (CFU/ml). Format: cell-based. Conditions: S. aureus. An excerpt:
The organisms studied were Staphylococcus aureus DSM 1104 and DSM 11729, gram positive, Klebsiella pneumoniae, gram negative, Enterobacter aerogenes, gram negative, and Acinetobacter baumannii, gram negative. For antibacterial testing in submerged cultures cultured cells are suspended in sterile phosphate-buffered saline (PBS), sterile PBS supplemented with 10% sterile horse serum, or sterile PBS supplemented with 10% sheep blood. The bacterial suspensions are placed into sterile black well plates with clear bottoms. Concentrations of photosensitizer used in the study were as follows: 1 μM, 10 μM, 100 μM, and 1 mM. After an incubation time period of 30 minutes, the samples are exposed to white light, with a power density and irradiation time resulting in an energy fluency of about 100 J/cm^2. Control samples contained no photosensitizer and are not exposed to light. The control samples for dark toxicity are only exposed to photosensitizer without any illumination. After irradiation, the samples are removed and suspended again in the culture media. The numbers of colony-forming units (CFU/ml) are enumerated after an adequate incubation time period.

Test [6] has as its system Staphylococcus aureus biofilms. Briefly: Antibacterial testing of bacterial biofilms (CFU/ml). Conditions: S. aureus biofilms (FIG. 1F). Format: cell-based, Staphylococcus aureus DSM1104. As to the method:
For antibacterial testing of bacterial biofilms the 96 pins of a transferable solid phase plates (TSP; Nunc-Immuno™ TSP with MaxiSorp™ surface) were used to generate the biofilms. The TSP plates were transferred in 96-well plates with 200 μl fresh overnight culture of Staphylococcus aureus DSM1104 cells and incubated at 35° C. about 20 hours by gentle shaking. Within this time the bacterial cells established biofilms on the pins. After removing of unattached cells by gentle washing with 250 μl of 0.9% NaCl solution the TSP plates with the biofilms on the pins were incubated with 250 μl of the photosensitizer solution or the solvent of the photosensitizer solution for control samples for 30 minutes in the dark. After incubation and another washing the pins were irradiated by white light, with a power density and irradiation time resulting in an energy fluence of about 100 J/cm^2. For the quantification of remaining attached cells, the pins were transferred into 250 μl of 0.9% NaCl solution by gentle sonication. The samples are removed, suspended in the culture media, and the numbers of colony-forming units (CFU/ml) are enumerated after an adequate incubation time period.

A word on the inhibition: it is how much of the control response was suppressed.

Take `Oc1cccc(-c2c3nc(c(-c4cccc(O)c4)c4ccc([nH]4)c(-c4cccc(O)c4)c4nc(c(-c5cccc(O)c5)c5ccc2[nH]5)CC4)C=C3)c1` [Temoporfin, 5,10,15,20-tetrakis(3-hydroxyphenyl)chlorin]: the anti-HIV activity result in test [1] is “anti-HIV activity was observed”. The inhibition at 2.5 µM in test [2] came to 22%; in test [3] it was 38%; in test [4], 42%; in test [5] it was 35%.
For “[5,10,15,20-tetrakis(3-hydroxyphenyl)porphyrinato]zinc(II)”, the antibacterial activity entry with Staphylococcus aureus (in the absence of light (FIG. 1A)) is recorded as “high antibacterial activity”; in the test with Staphylococcus aureus (in the presence of complex media (serum) (FIG. 1A, middle)) it was “activity”; in the test with Staphylococcus aureus (in the presence of whole blood (FIG. 1A, right)), “activity”. The “antibacterial activity against biofilms” value in test [6] is “active”.
